Assay results from ChEMBL document CHEMBL1126299, “Synthesis and structure-activity relationships of cephalosporins with C-3' catechol-containing residues” (J Med Chem, 1992).
In brackets after ≈: the same amount, converted by molar mass.

Key:
Pseudomonas aeruginosa [1] = experiment: microbe, parasite or virus in culture
Description: Minimum inhibitory concentration in Pseudomonas aeruginosa,799/61 permeability mutant

Homo sapiens = organism: Homo sapiens; experiment: Compound is evaluated for serum protein binding in human blood (protein binding in marmoset blood); format: functional
[2] = The compound was tested for % urinary recovery in marmosets at the dose of 3 mg/kg; format: ADME, organism-based; design: dose 3 mg/kg; conditions: callithrix, urine, read-out: Recovery
Citrobacter freundii [3] = experiment: microbe, parasite or virus in culture
Description: Minimum inhibitory concentration in Citrobacter freundii, DR 382031 constitutive depressed type 1

[4] = target: Beta-lactamase TEM (Escherichia coli) (UniProt P62593); experiment: The dissociation constant of compound was tested for beta-Lactamase stability
Enterobacter cloacae [5] = experiment: microbe, parasite or virus in culture
Description: Minimum inhibitory concentration in Enterobacter cloacae, P99+ constitutive depressed type 1 lactamase producer

Enterobacter cloacae [6] = experiment: The compound was tested for minimum inhibitory concentration in Enterobacter cloacae, DR 401108 constitutive depressed type 1 lactamase producer; format: functional
Pseudomonas aeruginosa [7] = experiment: microbe, parasite or virus in culture; remark: listed apart in the source
Description: Minimum inhibitory concentration in Pseudomonas aeruginosa, 18SH constitutive depressed type 1 lactamase producer

Enterobacter cloacae [8] = experiment: microbe, parasite or virus in culture; remark: listed apart in the source
Description: Minimum inhibitory concentration in Enterobacter cloacae, P99- inducible type 1 lactamase producer

[9] = The half life period in marmosets; format: ADME; conditions: callithrix, in vivo
Enterobacter cloacae [10] = experiment: microbe, parasite or virus in culture; remark: listed apart in the source
Description: Minimum inhibitory concentration in Enterobacter cloacae, I+401029 inducible type 1 lactamase producer

Providencia stuartii [11] = experiment: microbe, parasite or virus in culture
Description: Minimum inhibitory concentration in Pseudomonas stuartii, I+442019 inducible type 1 lactamase producer

[12] = The compound was evaluated for area under the curve in marmosets; format: ADME; conditions: callithrix, in vivo
Citrobacter freundii [13] = experiment: microbe, parasite or virus in culture; remark: listed apart in the source
Description: Minimum inhibitory concentration in Citrobacter freundii, I+382010 inducible type 1 lactamase producer

Providencia stuartii [14] = experiment: microbe, parasite or virus in culture; remark: listed apart in the source
Description: Minimum inhibitory concentration in Pseudomonas stuartii, DR 442049 constitutive depressed type 1 lactamase producer

Pseudomonas aeruginosa [15] = experiment: microbe, parasite or virus in culture; remark: listed apart in the source
Description: Minimum inhibitory concentration in Pseudomonas aeruginosa,799WT parent organism

Pseudomonas aeruginosa [16] = experiment: microbe, parasite or virus in culture; remark: listed apart in the source
Description: Minimum inhibitory concentration in Pseudomonas aeruginosa, 18S inducible type 1 lactamase producer

Staphylococcus aureus [17] = experiment: microbe, parasite or virus in culture
Staphylococcus aureus [18] = experiment: microbe, parasite or virus in culture; remark: listed apart in the source
Escherichia coli [19] = experiment: microbe, parasite or virus in culture
Description: In vitro minimum inhibitory concentration against Escherichia coli (DC2 permeability mutant).

Enterobacter cloacae [20] = experiment: microbe, parasite or virus in culture; remark: listed apart in the source
Description: Minimum inhibitory concentration in Enterobacter cloacae, DR 401108 constitutive depressed type 1 lactamase producer

Escherichia coli [21] = experiment: microbe, parasite or virus in culture; remark: listed apart in the source
Description: In vitro minimum inhibitory concentration against Escherichia coli (DC0 parent organism).

Pseudomonas aeruginosa [22] = experiment: microbe, parasite or virus in culture; remark: listed apart in the source
Description: In vitro minimum inhibitory concentration against Pseudomonas aeruginosa (PU21).

[23] = The half life period was tested; format: ADME
[24] = The compound was evaluated for area under the curve; format: ADME
Providencia stuartii [25] = experiment: The compound was tested for minimum inhibitory concentration in Pseudomonas stuartii,I+442019 inducible type 1 lactamase producer; format: functional
Pseudomonas aeruginosa [26] = experiment: The compound was tested for minimum inhibitory concentration in Pseudomonas aeruginosa,18S inducible type 1 lactamase producer; format: functional
Citrobacter freundii [27] = experiment: The compound was tested for minimum inhibitory concentration in Citrobacter freundii, DR 382031 constitutive depressed type 1; format: functional
Citrobacter freundii [28] = experiment: The compound was tested for minimum inhibitory concentration in Citrobacter freundii, I+382010 inducible type 1 lactamase producer; format: functional
Enterobacter cloacae [29] = experiment: The compound was tested for minimum inhibitory concentration in Enterobacter cloacae,P99- inducible type 1 lactamase producer; format: functional
Enterobacter cloacae [30] = experiment: The compound was tested for minimum inhibitory concentration in Enterobacter cloacae,I+401029 inducible type 1 lactamase producer; format: functional
Pseudomonas aeruginosa [31] = experiment: The compound was tested for minimum inhibitory concentration in Pseudomonas aeruginosa,799/61 permeability mutant; format: functional
Pseudomonas aeruginosa [32] = experiment: The compound was tested for minimum inhibitory concentration in Pseudomonas aeruginosa,799WT parent organism; format: functional
Citrobacter freundii [33] = experiment: The compound was tested for minimum inhibitory concentration in Citrobacter freundii,I+382010 inducible type 1 lactamase producer; format: functional
Staphylococcus aureus [34] = experiment: The compound was tested for minimum inhibitory concentration in Staphylococcus aureus Oxford penicillin sensitive Staphylococcus aureus; format: functional
Staphylococcus aureus [35] = experiment: The compound was tested for minimum inhibitory concentration in Staphylococcus aureus,147N penicillin sensitive Staphylococcus aureus; format: functional

Sequence of Beta-lactamase TEM (Escherichia coli) (P62593 whole entry): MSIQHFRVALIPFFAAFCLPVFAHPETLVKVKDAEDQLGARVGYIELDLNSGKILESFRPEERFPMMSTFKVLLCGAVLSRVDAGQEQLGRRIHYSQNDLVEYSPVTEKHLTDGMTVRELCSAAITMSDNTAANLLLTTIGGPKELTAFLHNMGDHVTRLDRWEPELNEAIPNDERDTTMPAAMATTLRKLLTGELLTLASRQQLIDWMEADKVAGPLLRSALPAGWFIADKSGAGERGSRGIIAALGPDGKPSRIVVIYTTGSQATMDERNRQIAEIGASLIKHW

Row | Structure (SMILES) | MIC (Pseudomonas aeruginosa [1]) [µg/mL] | Activity (Homo sapiens) [%] | dose excreted [2] [%] | MIC (Citrobacter freundii [3]) [µg/mL] | MIC (Enterobacter cloacae [5]) [µg/mL] | MIC (Pseudomonas aeruginosa [7]) [µg/mL] | MIC (Enterobacter cloacae [8]) [µg/mL] | MIC (Enterobacter cloacae [10]) [µg/mL] | MIC (Providencia stuartii [11]) [µg/mL] | MIC (Citrobacter freundii [13]) [µg/mL] | MIC (Providencia stuartii [14]) [µg/mL] | MIC (Pseudomonas aeruginosa [15]) [µg/mL] | MIC (Pseudomonas aeruginosa [16]) [µg/mL] | MIC (Escherichia coli [19]) [µg/mL] | MIC (Enterobacter cloacae [20]) [µg/mL] | MIC (Escherichia coli [21]) [µg/mL] | MIC (Pseudomonas aeruginosa [22]) [µg/mL] | MIC (Citrobacter freundii [27]) [µg/mL] | also measured
1 | CC(C)(O/N=C(\C(=O)N[C@@H]1C(=O)N2C(C(=O)O)=C(CNC(=O)c3cc(Cl)c(O)c(O)c3Cl)CSC12)c1csc(N)n1)C(=O)O (stereo partly drawn) | 0.008 (≈ 0.0116 µM) | 98.7 | 16.2 | 2 (≈ 2.9 µM) | 4 (≈ 5.8 µM) | 0.015 (≈ 0.0218 µM) | 0.03 (≈ 0.0435 µM) | 0.008 (≈ 0.0116 µM) | 0.06 (≈ 0.087 µM) | 0.008 (≈ 0.0116 µM) | 1 (≈ 1.45 µM) | 0.008 (≈ 0.0116 µM) | 0.008 (≈ 0.0116 µM) | – | – | – | – | – | pKa [4]: 6.3; MIC (Enterobacter cloacae [6]): 4 µg/mL (≈ 5.8 µM); half-life [9]: 8.22 h; AUC [12]: 461 mg/h/L
2 | CCn1cc(C(=O)NCC2=C(C(=O)O)N3C(=O)[C@@H](NC(=O)/C(=N\OC(C)(C)C(=O)O)c4csc(N)n4)C3SC2)c(=O)c2cc(O)c(O)cc21 (stereo partly drawn) | 0.008 (≈ 0.0112 µM) | 99.2 | 13.9 | 0.125 (≈ 0.175 µM) | 0.25 (≈ 0.349 µM) | 0.008 (≈ 0.0112 µM) | 0.06 (≈ 0.0838 µM) | 0.06 (≈ 0.0838 µM) | 0.25 (≈ 0.349 µM) | 0.008 (≈ 0.0112 µM) | 8 (≈ 11.2 µM) | 0.008 (≈ 0.0112 µM) | 0.008 (≈ 0.0112 µM) | 0.008 (≈ 0.0112 µM) | 1 (≈ 1.4 µM) | 0.008 (≈ 0.0112 µM) | 0.06 (≈ 0.0838 µM) | – | pKa [4]: 7.2; half-life [9]: 3.47 h; AUC [12]: 238.5 mg/h/L; MIC (Staphylococcus aureus [17]): 16 µg/mL (≈ 22.4 µM); MIC (Staphylococcus aureus [18]): 16 µg/mL (≈ 22.4 µM)
3 | CC(C)(O/N=C(\C(=O)N[C@@H]1C(=O)N2C(C(=O)[O-])=C(C[n+]3ccccc3)CS[C@H]12)c1csc(N)n1)C(=O)O [CEFTAZIDIME] | 0.008 (≈ 0.0146 µM) | – | – | 128 (≈ 234 µM) | – | – | – | – | 0.25 (≈ 0.457 µM) | 0.125 (≈ 0.229 µM) | 4 (≈ 7.32 µM) | 0.125 (≈ 0.229 µM) | 2 (≈ 3.66 µM) | – | – | – | – | – | half-life [23]: 0.7 h; AUC [24]: 14 mg/h/L
4 | CC(C)(O/N=C(\C(=O)N[C@@H]1C(=O)N2C(C(=O)O)=C(CNC(=O)c3ccc4cc(O)c(O)cc4c3)CSC12)c1csc(N)n1)C(=O)O (stereo partly drawn) | 0.008 (≈ 0.0119 µM) | – | – | – | 16 (≈ 23.9 µM) | 0.125 (≈ 0.186 µM) | – | – | – | – | 8 (≈ 11.9 µM) | 0.03 (≈ 0.0447 µM) | – | – | > 128 | – | – | 16 (≈ 23.9 µM) | MIC (Providencia stuartii [25]): 0.25 µg/mL (≈ 0.373 µM); MIC (Pseudomonas aeruginosa [26]): 0.008 µg/mL (≈ 0.0119 µM); MIC (Citrobacter freundii [28]): 0.008 µg/mL (≈ 0.0119 µM); MIC (Enterobacter cloacae [29]): 0.125 µg/mL (≈ 0.186 µM); MIC (Enterobacter cloacae [30]): 0.125 µg/mL (≈ 0.186 µM)
5 | CC(C)(O/N=C(\C(=O)N[C@@H]1C(=O)N2C(C(=O)O)=C(CNC(=O)c3cnc4cc(O)c(O)cc4c3O)CSC12)c1csc(N)n1)C(=O)O (stereo partly drawn) | – | – | – | – | 0.06 (≈ 0.0873 µM) | 0.008 (≈ 0.0116 µM) | 0.03 (≈ 0.0436 µM) | – | – | – | 2 (≈ 2.91 µM) | – | 0.008 (≈ 0.0116 µM) | – | 1 (≈ 1.45 µM) | – | – | 0.125 (≈ 0.182 µM) | MIC (Pseudomonas aeruginosa [31]): 0.008 µg/mL (≈ 0.0116 µM); MIC (Pseudomonas aeruginosa [32]): 0.008 µg/mL (≈ 0.0116 µM); MIC (Citrobacter freundii [33]): 0.008 µg/mL (≈ 0.0116 µM); MIC (Providencia stuartii [25]): 0.03 µg/mL (≈ 0.0436 µM); MIC (Enterobacter cloacae [30]): 0.03 µg/mL (≈ 0.0436 µM)
6 | CC(C)(O/N=C(\C(=O)N[C@@H]1C(=O)N2C(C(=O)O)=C(CCc3ccc(O)c(O)c3)CSC12)c1csc(N)n1)C(=O)O (stereo partly drawn) | 0.125 (≈ 0.211 µM) | – | – | 16 (≈ 27 µM) | 32 (≈ 54.1 µM) | 0.125 (≈ 0.211 µM) | 4 (≈ 6.76 µM) | 0.5 (≈ 0.845 µM) | 2 (≈ 3.38 µM) | 0.25 (≈ 0.423 µM) | 8 (≈ 13.5 µM) | 0.06 (≈ 0.101 µM) | 0.03 (≈ 0.0507 µM) | 0.03 (≈ 0.0507 µM) | 32 (≈ 54.1 µM) | 0.125 (≈ 0.211 µM) | 0.25 (≈ 0.423 µM) | – | MIC (Staphylococcus aureus [34]): 8 µg/mL (≈ 13.5 µM); MIC (Staphylococcus aureus [35]): 16 µg/mL (≈ 27 µM)
7 | CC(C)(O/N=C(\C(=O)N[C@@H]1C(=O)N2C(C(=O)O)=C(CCNC(=O)c3cc(O)c(O)c(Br)c3)CSC12)c1csc(N)n1)C(=O)O (stereo partly drawn) | 0.008 (≈ 0.0112 µM) | 99 | 17.5 | – | 2 (≈ 2.8 µM) | 0.015 (≈ 0.021 µM) | 0.03 (≈ 0.042 µM) | 0.015 (≈ 0.021 µM) | 0.25 (≈ 0.35 µM) | 0.008 (≈ 0.0112 µM) | 4 (≈ 5.61 µM) | 0.008 (≈ 0.0112 µM) | 0.008 (≈ 0.0112 µM) | 0.008 (≈ 0.0112 µM) | 8 (≈ 11.2 µM) | 0.008 (≈ 0.0112 µM) | 0.008 (≈ 0.0112 µM) | 1 (≈ 1.4 µM) | MIC (Staphylococcus aureus [34]): 16 µg/mL (≈ 22.4 µM); MIC (Staphylococcus aureus [35]): 16 µg/mL (≈ 22.4 µM)
